# Assay results published in US9346813B2, “Substituted pyrrolo[2,3-d]pyrimindines as CDK9 kinase inhibitors” (AbbVie Inc., priority 2014, dated 2016).
# Tests used:
# [1] = target: T1, CDK9/Cyclin T1 (Homo sapiens, UniProt P50750); assay: CDK9 enzyme protocol (LANCE ULight TR-FRET kinase assay); type: biochemical; details: 4 nM CDK9/Cyclin T1, 1000 μM ATP, 100 nM U-light MBP peptide, 30 minutes
# T1 construct: purchased Carna Biosciences 04-110
# Description: CDK9 enzyme activities were measured using LANCE ULight TR-FRET kinase assay reagents (PerkinElmer, Waltham, Mass.). Compounds were directly added in 100% DMSO to white low volume assay plates (Perkin Elmer Proxiplate 6008289) using a Labcyte Echo acoustic dispenser. Assay reagents in serine/threonine kinase assay buffer containing 20 mM HEPES, 10 mM MgCl2, 100 mM Na3VO4, and 0.0075% Triton X-100. were added for final reaction mixture concentrations of 1000 μM ATP, 100 nM U-light MBP peptide (Perkin Elmer TRF0109M) and reaction initiated with 4 nM CDK9/Cyclin T1 (Carna Biosciences 04-110). The kinase reaction was carried out for 30 minutes before addition of stopping buffer to a final of 20 mM EDTA and 0.5 nM of LANCE Ultra Europium anti-phospho-MBP antibody (PerkinElmer TRF0201M) in LANCE detection buffer (PerkinElmer CR97-100). The reaction was equilibrated for 1 hour and the signal read in the Perkin Elmer Envision in TR-FRET mode (excitation at 320 nm and emission at 615/665 nm).
# [2] = system: H929 cells; assay: Cell viability assay in H929 cells (Cell TiterGlo); type: cell-based; details: Homo sapiens, NCI-H929, 24 hours at 37° C.
# Description: Cell viability assays were performed using A431 or H929 cells. A431 cells were seeded in 96-well plates at 10,000 cells/well, and after overnight incubation, treated with compounds at 2-times the final concentration to result in a dose response of 3-fold dilutions from 10 μM to 0.0005 μM (50 μL/well, 0.1% final DMSO concentration). H929 cells were seeded in 96-well plates at 10,000 cells/well and treated immediately with compounds as described above. After 24 hours at 37° C., cell viability was measured using Cell TiterGlo reagent (Promega) with a luminescence reader. Alternately, cell viability assays were performed in 384-well format. A431 cells were seeded in 384-well plates at 2500 cells/well and, after overnight incubation, treated with compounds in a dose response of 3-fold dilutions from 10 μM to 0.0005 μM (25 nL/well, 0.1% final DMSO concentration). For the H929 viability assay, 25 nL/well of the compounds was dispensed into 384-well plates in a dose response as described above and cells were immediately seeded in 384-well plates at 2500 cells/well. After 24 hours at 37° C., cell viability was measured using Cell TiterGlo reagent (Promega) with a luminescence reader.
# T1 sequence (P50750 whole entry): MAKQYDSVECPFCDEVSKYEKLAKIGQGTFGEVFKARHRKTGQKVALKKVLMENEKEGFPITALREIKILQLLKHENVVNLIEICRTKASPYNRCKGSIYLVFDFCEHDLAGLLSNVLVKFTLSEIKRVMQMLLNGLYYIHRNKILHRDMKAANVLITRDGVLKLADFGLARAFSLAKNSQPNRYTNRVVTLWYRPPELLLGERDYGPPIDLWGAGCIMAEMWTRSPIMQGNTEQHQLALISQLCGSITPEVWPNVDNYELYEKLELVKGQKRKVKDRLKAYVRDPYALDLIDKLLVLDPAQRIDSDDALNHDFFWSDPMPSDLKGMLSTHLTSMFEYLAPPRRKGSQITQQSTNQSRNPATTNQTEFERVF
# T1 sequence (O60563 whole entry partner): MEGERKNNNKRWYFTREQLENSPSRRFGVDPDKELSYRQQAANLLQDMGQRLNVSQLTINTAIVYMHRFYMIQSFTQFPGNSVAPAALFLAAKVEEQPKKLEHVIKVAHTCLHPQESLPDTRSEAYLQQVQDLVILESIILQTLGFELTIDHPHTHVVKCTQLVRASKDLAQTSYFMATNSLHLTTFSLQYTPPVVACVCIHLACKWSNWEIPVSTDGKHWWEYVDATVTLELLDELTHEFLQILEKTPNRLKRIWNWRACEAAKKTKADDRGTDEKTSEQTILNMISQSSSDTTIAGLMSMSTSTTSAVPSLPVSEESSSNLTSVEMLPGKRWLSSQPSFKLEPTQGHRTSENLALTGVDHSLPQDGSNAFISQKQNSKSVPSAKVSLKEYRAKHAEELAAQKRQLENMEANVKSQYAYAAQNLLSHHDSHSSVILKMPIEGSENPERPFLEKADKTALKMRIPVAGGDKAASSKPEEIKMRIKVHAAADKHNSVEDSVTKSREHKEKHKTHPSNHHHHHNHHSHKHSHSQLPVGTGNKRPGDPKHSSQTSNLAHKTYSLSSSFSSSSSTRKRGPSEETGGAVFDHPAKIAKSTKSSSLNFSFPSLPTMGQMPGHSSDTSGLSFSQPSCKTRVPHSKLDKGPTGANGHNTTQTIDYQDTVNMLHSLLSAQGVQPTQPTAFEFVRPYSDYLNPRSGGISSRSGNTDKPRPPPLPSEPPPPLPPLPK
SMILES,IC50 [1],EC50 [2]
"COc1ccc(F)cc1-c1ncnc2[nH]c(C3=CCN(Cc4cccc(C#N)c4)CC3)cc12 [Example 23, 3-({4-[4-(5-fluoro-2-methoxyphenyl)-7H-pyrrolo[2,3-d]pyrimidin-6-yl]-3,6-dihydropyridin-1(2H)-yl}methyl)benzonitrile]",270 nM,420 nM
"COc1ccc(F)cc1-c1ncnc2[nH]c(C3=CCN(Cc4ccc(N)cc4)CC3)cc12 [Example 70, 4-({4-[4-(5-fluoro-2-methoxyphenyl)-7H-pyrrolo[2,3-d]pyrimidin-6-yl]-3,6-dihydropyridin-1(2H)-yl}methyl)aniline]",91 nM,160 nM
"COc1ccc(F)cc1-c1ncnc2[nH]c(C3=CCN(CC4CCNCC4)CC3)cc12 [Example 39, 4-(5-fluoro-2-methoxyphenyl)-6-[1-(piperidin-4-ylmethyl)-1,2,3,6-tetrahydropyridin-4-yl]-7H-pyrrolo[2,3-d]pyrimidine]",210 nM,4740 nM
"COc1ccc(F)cc1-c1ncnc2[nH]c(C3=CCN(Cc4ccncc4)CC3)cc12 [Example 27, 4-(5-fluoro-2-methoxyphenyl)-6-[1-(pyridin-4-ylmethyl)-1,2,3,6-tetrahydropyridin-4-yl]-7H-pyrrolo[2,3-d]pyrimidine]",220 nM,720 nM
"COc1ccc(F)cc1-c1ncnc2[nH]c(C3=CCN(Cc4cccc(F)c4)CC3)cc12 [Example 35, 6-[1-(3-fluorobenzyl)-1,2,3,6-tetrahydropyridin-4-yl]-4-(5-fluoro-2-methoxyphenyl)-7H-pyrrolo[2,3-d]pyrimidine]",150 nM,930 nM
"COc1ccc(F)cc1-c1ncnc2[nH]c(C3=CCN(CC4CCCO4)CC3)cc12 (stereo not shown) [Example 24, 4-(5-fluoro-2-methoxyphenyl)-6-[1-(tetrahydrofuran-2-ylmethyl)-1,2,3,6-tetrahydropyridin-4-yl]-7H-pyrrolo[2,3-d]pyrimidine]",100 nM,250 nM
"COc1ccc(F)cc1-c1ncnc2[nH]c(C3=CCN(C)CC3)cc12 [Example 4, 4-(5-fluoro-2-methoxyphenyl)-6-(1-methyl-1,2,3,6-tetrahydropyridin-4-yl)-7H-pyrrolo[2,3-d]pyrimidine]",23 nM,350 nM
"COc1ccc(F)cc1-c1ncnc2[nH]c(C3=CCN(S(=O)(=O)C4CC4)CC3)cc12 [Example 8, 6-[1-(cyclopropylsulfonyl)-1,2,3,6-tetrahydropyridin-4-yl]-4-(5-fluoro-2-methoxyphenyl)-7H-pyrrolo[2,3-d]pyrimidine]",19 nM,690 nM
"COc1ccc(F)cc1-c1ncnc2[nH]c(C3=CCN(Cc4ccccc4)CC3)cc12 [Example 21, 6-(1-benzyl-1,2,3,6-tetrahydropyridin-4-yl)-4-(5-fluoro-2-methoxyphenyl)-7H-pyrrolo[2,3-d]pyrimidine]",35 nM,440 nM
"COc1ccc(F)cc1-c1ncnc2[nH]c(C3=CCN(S(C)(=O)=O)CC3)cc12 [Example 5, 4-(5-fluoro-2-methoxyphenyl)-6-[1-(methylsulfonyl)-1,2,3,6-tetrahydropyridin-4-yl]-7H-pyrrolo[2,3-d]pyrimidine]",20 nM,380 nM
"COc1ccc(F)cc1-c1ncnc2[nH]c(C3=CCN(C(C)=O)CC3)cc12 [Example 6, 1-{4-[4-(5-fluoro-2-methoxyphenyl)-7H-pyrrolo[2,3-d]pyrimidin-6-yl]-3,6-dihydropyridin-1(2H)-yl}ethanone]",42 nM,410 nM
"COc1ccc(F)cc1-c1ncnc2[nH]c(C3=CCN(C4CCC(C(=O)O)CC4)CC3)cc12 (stereo not shown) [Example 86, 4-{4-[4-(5-fluoro-2-methoxyphenyl)-7H-pyrrolo[2,3-d]pyrimidin-6-yl]-3,6-dihydropyridin-1(2H)-yl}cyclohexanecarboxylic acid]",400 nM,3600 nM

# Now from value to molecule:
IC50 [1],EC50 [2],SMILES
150 nM,1100 nM,"CCN1CCC(C(=O)N2CC=C(c3cc4c(-c5cc(F)ccc5OC)ncnc4[nH]3)CC2)C1 (stereo not shown) [Example 16, (1-ethylpyrrolidin-3-yl){4-[4-(5-fluoro-2-methoxyphenyl)-7H-pyrrolo[2,3-d]pyrimidin-6-yl]-3,6-dihydropyridin-1(2H)-yl}methanone]"
16 nM,600 nM,"COc1ccc(F)cc1-c1ncnc2[nH]c(C3=CCN(C(=O)N(C)C)CC3)cc12 [Example 75, 4-[4-(5-fluoro-2-methoxyphenyl)-7H-pyrrolo[2,3-d]pyrimidin-6-yl]-N,N-dimethyl-3,6-dihydropyridine-1(2H)-carboxamide]"
88 nM,180 nM,"C=CCNC(=O)N1CC=C(c2cc3c(-c4cc(F)ccc4OC)ncnc3[nH]2)CC1 [Example 19, 4-[4-(5-fluoro-2-methoxyphenyl)-7H-pyrrolo[2,3-d]pyrimidin-6-yl]-N-(prop-2-en-1-yl)-3,6-dihydropyridine-1(2H)-carboxamide]"
110 nM,160 nM,"CS(=O)(=O)N1CC=C(c2cc3c(-c4cc(NCc5cccc(C#N)c5)ccc4F)ncnc3[nH]2)CC1 [Example 31, 3-{[(4-fluoro-3-{6-[1-(methylsulfonyl)-1,2,3,6-tetrahydropyridin-4-yl]-7H-pyrrolo[2,3-d]pyrimidin-4-yl}phenyl)amino]methyl}benzonitrile]"
170 nM,1700 nM,"COc1ccc(F)cc1-c1ncnc2[nH]c(C3=CCC(N[C@@H](CC(C)C)C(=O)O)CC3)cc12 (stereo partly drawn) [Example 85, N-{4-[4-(5-fluoro-2-methoxyphenyl)-7H-pyrrolo[2,3-d]pyrimidin-6-yl]cyclohex-3-en-1-yl}-L-leucine]"
70 nM,150 nM,"COc1ccc(F)cc1-c1ncnc2[nH]c(C3=CCN(C(=O)[C@H]4CC[C@H](C(=O)OC)CC4)CC3)cc12 [Example 73, methyl trans-4-({4-[4-(5-fluoro-2-methoxyphenyl)-7H-pyrrolo[2,3-d]pyrimidin-6-yl]-3,6-dihydropyridin-1(2H)-yl}carbonyl)cyclohexanecarboxylate]"
51 nM,329 nM,"CS(=O)(=O)N1CC=C(c2cc3c(-c4cc(NCc5ccncc5)ccc4F)ncnc3[nH]2)CC1 [Example 37, 4-fluoro-3-{6-[1-(methylsulfonyl)-1,2,3,6-tetrahydropyridin-4-yl]-7H-pyrrolo[2,3-d]pyrimidin-4-yl}-N-(pyridin-4-ylmethyl)aniline]"
180 nM,> 10000 nM,"COc1ccc(Cl)cc1-c1ncnc2[nH]c(C3=CCN(S(C)(=O)=O)CC3)cc12 [Example 45, 4-(5-chloro-2-methoxyphenyl)-6-[1-(methylsulfonyl)-1,2,3,6-tetrahydropyridin-4-yl]-7H-pyrrolo[2,3-d]pyrimidine]"
69 nM,1000 nM,"COc1ccc(F)cc1-c1ncnc2[nH]c(C3=CCOCC3)cc12 [Example 65, 6-(3,6-dihydro-2H-pyran-4-yl)-4-(5-fluoro-2-methoxyphenyl)-7H-pyrrolo[2,3-d]pyrimidine]"
110 nM,5900 nM,"COc1ccc(F)cc1-c1ncnc2[nH]c(C3=CCN(C(=O)[C@H]4CC[C@H](C(=O)O)CC4)CC3)cc12 [Example 74, trans-4-({4-[4-(5-fluoro-2-methoxyphenyl)-7H-pyrrolo[2,3-d]pyrimidin-6-yl]-3,6-dihydropyridin-1(2H)-yl}carbonyl)cyclohexanecarboxylic acid]"
130 nM,400 nM,"COCC(=O)N1CC=C(c2cc3c(-c4cc(F)ccc4OC)ncnc3[nH]2)CC1 [Example 18, 1-{4-[4-(5-fluoro-2-methoxyphenyl)-7H-pyrrolo[2,3-d]pyrimidin-6-yl]-3,6-dihydropyridin-1(2H)-yl}-2-methoxyethanone]"
76 nM,58 nM,"COc1ccc(F)cc1-c1ncnc2[nH]c(C3=CCN(Cc4ccc(NC(C)=O)cc4)CC3)cc12 [Example 25, N-[4-({4-[4-(5-fluoro-2-methoxyphenyl)-7H-pyrrolo[2,3-d]pyrimidin-6-yl]-3,6-dihydropyridin-1(2H)-yl}methyl)phenyl]acetamide]"
68 nM,3500 nM,"CN(C)C(=O)N1CC=C(c2cc3c(-c4cccc(F)c4F)ncnc3[nH]2)CC1 [Example 76, 4-[4-(2,3-difluorophenyl)-7H-pyrrolo[2,3-d]pyrimidin-6-yl]-N,N-dimethyl-3,6-dihydropyridine-1(2H)-carboxamide]"
320 nM,520 nM,"COc1ccc(F)cc1-c1ncnc2[nH]c(C3=CCC(N[C@H](C(=O)O)C(C)(C)C)CC3)cc12 (stereo partly drawn) [Example 83, N-{4-[4-(5-fluoro-2-methoxyphenyl)-7H-pyrrolo[2,3-d]pyrimidin-6-yl]cyclohex-3-en-1-yl}-3-methyl-L-valine]"
